ChEMBL document CHEMBL1201862, “PubChem BioAssay data set” (2004)
Active and inactive are the calls of the source.

Tests used:
DNA topoisomerase = biological target: T1, DNA topoisomerase (Yersinia pestis, UniProt A0A2S9PM60); experiment: Y. pestis Topo-I inhibitors, cleavage product readout, dose response, biochemical, cherry-pick (AID 588525)
T1 sequence (A0A2S9PM60 whole entry): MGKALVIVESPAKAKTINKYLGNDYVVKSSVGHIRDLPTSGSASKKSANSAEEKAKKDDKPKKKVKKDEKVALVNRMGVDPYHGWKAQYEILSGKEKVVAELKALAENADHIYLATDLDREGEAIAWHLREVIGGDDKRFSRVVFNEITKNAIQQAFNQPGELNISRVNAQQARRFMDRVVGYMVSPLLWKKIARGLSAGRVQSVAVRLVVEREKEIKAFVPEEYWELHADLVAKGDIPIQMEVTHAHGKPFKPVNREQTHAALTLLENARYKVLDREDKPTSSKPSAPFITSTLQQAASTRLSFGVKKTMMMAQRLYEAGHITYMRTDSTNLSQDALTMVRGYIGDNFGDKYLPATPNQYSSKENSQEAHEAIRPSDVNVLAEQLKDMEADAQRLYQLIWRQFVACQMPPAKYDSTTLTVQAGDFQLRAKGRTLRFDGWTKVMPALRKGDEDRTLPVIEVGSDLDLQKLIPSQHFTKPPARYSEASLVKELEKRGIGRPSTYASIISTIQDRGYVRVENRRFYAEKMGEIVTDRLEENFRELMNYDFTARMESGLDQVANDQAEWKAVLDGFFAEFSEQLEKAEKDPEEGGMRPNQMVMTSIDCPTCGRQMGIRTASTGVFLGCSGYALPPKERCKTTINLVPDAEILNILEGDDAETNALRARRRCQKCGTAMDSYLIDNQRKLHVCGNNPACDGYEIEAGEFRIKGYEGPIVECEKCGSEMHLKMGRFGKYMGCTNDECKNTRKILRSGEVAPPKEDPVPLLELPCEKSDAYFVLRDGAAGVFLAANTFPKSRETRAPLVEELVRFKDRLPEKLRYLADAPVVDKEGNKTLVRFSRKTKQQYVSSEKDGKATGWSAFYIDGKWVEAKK

Cysteine protease ATG4B = biological target: T2, Cysteine protease ATG4B (Homo sapiens, UniProt Q9Y4P1); format: functional;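 note: Fluorescence-based dose-response confirmation assay measuring inhibition of ATG4B activity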
T2 sequence (Q9Y4P1 whole entry): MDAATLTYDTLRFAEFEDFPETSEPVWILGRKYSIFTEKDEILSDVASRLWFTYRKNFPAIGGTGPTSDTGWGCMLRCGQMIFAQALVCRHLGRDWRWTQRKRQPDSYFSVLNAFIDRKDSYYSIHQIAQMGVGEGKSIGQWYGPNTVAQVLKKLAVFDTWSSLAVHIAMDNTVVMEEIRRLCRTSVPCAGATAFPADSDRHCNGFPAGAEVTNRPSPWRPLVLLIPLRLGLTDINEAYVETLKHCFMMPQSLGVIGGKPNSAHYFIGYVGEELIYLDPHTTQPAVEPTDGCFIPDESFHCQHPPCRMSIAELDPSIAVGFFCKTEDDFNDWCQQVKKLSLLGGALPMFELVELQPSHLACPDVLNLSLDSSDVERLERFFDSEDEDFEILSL

Phospholipase A2 = Phospholipase A2 (Homo sapiens, UniProt P04054); format: functional;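 note: confirmatory dose-response counterscreen on phospholipase A2, testing hits that came from an ultra-high-throughput screen for ATG4B inhibitors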
Sequence of Phospholipase A2 (P04054 whole entry): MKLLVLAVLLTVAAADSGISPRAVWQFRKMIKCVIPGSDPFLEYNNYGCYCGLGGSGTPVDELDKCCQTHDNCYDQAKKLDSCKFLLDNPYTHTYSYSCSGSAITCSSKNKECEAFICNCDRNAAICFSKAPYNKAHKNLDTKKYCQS

Cytochrome P450 2C9 = Cytochrome P450 2C9 (Homo sapiens, UniProt P11712)
Sequence of Cytochrome P450 2C9 (P11712 whole entry): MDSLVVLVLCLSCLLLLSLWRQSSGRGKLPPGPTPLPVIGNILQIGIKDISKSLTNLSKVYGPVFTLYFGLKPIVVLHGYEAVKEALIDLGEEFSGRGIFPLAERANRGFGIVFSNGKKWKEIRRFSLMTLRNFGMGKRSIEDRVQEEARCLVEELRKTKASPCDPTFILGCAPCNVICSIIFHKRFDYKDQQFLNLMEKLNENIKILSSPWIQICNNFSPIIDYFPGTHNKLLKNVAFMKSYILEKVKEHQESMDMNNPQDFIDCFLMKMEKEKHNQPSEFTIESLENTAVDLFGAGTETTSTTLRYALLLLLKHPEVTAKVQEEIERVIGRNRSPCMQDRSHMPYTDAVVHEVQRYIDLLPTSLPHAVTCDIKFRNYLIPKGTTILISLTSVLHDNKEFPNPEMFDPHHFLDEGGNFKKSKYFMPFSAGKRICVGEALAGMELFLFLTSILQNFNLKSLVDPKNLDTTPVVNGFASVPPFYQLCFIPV

Beta-galactosidase = Beta-galactosidase (Escherichia coli, UniProt Q8VNN2); experiment: PubChem AID 485352; format: functional
Sequence of Beta-galactosidase (Q8VNN2 whole entry): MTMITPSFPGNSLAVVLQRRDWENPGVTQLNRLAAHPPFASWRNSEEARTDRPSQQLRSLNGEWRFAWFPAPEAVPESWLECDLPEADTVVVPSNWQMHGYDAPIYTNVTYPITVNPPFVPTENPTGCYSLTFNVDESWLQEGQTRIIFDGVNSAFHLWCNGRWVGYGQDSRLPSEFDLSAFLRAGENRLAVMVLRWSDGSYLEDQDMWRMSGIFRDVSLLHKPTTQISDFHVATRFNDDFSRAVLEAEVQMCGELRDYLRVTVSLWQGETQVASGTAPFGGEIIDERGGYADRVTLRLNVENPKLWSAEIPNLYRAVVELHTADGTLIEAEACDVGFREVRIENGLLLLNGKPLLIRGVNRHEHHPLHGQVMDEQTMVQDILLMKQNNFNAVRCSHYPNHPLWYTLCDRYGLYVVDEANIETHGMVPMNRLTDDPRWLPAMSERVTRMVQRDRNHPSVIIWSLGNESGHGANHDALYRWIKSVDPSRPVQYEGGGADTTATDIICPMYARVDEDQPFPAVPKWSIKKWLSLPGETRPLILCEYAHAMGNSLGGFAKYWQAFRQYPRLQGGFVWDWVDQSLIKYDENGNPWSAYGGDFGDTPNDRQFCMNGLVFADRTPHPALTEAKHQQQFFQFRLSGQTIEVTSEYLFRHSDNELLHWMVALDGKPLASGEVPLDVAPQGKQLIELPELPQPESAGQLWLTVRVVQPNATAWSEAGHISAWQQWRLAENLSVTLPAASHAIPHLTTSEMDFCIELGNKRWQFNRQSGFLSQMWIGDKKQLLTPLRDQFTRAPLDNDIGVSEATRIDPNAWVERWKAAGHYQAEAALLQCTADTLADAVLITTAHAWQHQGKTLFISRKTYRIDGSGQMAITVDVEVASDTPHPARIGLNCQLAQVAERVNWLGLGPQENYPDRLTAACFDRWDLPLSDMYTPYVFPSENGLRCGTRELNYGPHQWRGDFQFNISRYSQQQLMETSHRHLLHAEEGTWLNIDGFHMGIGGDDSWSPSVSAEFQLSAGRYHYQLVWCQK

[1] = biological target: T3, Type-1 angiotensin II receptor (Homo sapiens, UniProt P30556); experiment: AT1 receptor antagonists, dose response, selectivity assay for APJ receptor antagonist project, cell-based, uHTS hits (AID 463214); format: functional;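 note: antagonist potency against angiotensin II stimulated AT1 response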
T3 sequence (P30556 whole entry): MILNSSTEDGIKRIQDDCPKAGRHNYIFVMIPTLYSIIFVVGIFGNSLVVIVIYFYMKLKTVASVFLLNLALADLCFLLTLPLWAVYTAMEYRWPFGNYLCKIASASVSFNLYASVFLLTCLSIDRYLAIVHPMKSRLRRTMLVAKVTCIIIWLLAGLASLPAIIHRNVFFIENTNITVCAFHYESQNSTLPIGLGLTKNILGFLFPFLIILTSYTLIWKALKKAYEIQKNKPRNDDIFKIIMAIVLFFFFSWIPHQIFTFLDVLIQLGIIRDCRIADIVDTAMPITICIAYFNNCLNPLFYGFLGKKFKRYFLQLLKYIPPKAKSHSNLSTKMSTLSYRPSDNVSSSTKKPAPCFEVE

[2] = biological target: T4, Endoribonuclease toxin MazF (Escherichia coli K-12, UniProt P0AE70); experiment: MazF toxin RNase activators, dose response, biochemical, fluorescence, single-stranded RNA substrate, uHTS hits (AID 588481); format: functional
T4 sequence (P0AE70 whole entry): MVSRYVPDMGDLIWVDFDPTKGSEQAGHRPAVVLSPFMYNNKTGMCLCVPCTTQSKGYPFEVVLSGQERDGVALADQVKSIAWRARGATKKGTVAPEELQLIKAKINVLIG

[3] = biological target: T4, Endoribonuclease toxin MazF; experiment: fluorescent RNA oligo signal without MazF, dose response, counter-screen for MazEF activator project, biochemical, fluorescence, single-stranded RNase substrate (AID 588502); format: functional
[4] = biological target: T5, Polyadenylate-binding protein 1 (Homo sapiens, UniProt P11940); experiment: PABP1 MLLE–PAM2 interaction inhibitors, dose response, miRNA deadenylation inhibitor project, biochemical, fluorescence polarization, Cy5-PAM2 peptide, secondary (AID 602260); format: functional; settings: read-out: IC50_Mean
T5 sequence (P11940 whole entry): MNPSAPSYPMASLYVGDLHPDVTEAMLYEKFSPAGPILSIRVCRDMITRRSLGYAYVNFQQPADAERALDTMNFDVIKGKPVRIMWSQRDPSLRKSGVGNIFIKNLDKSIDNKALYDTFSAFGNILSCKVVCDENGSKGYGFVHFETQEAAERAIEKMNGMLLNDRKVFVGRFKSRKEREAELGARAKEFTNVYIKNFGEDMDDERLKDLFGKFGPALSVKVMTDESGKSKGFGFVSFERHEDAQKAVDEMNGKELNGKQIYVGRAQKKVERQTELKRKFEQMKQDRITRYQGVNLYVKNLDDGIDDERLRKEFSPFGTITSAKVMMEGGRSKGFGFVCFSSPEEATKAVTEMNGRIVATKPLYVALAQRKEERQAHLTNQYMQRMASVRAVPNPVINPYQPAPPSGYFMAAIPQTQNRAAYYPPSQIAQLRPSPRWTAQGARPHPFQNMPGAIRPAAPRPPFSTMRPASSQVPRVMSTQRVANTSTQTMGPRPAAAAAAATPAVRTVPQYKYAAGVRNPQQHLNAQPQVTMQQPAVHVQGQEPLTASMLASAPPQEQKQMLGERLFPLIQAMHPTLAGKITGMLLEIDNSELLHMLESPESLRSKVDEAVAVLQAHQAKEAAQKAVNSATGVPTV

[5] = biological target: T5, Polyadenylate-binding protein 1; experiment: PABP1 MLLE–PAM2 binding inhibitor potency, dose response, biochemical, fluorescence polarization, FITC-PAM2 peptide (AID 602259); format: functional; settings: read-out: IC50_Mean
Prothrombin = Prothrombin (Homo sapiens, UniProt P00734); experiment: Thrombin 1536 HTS Dose Response Confirmation. [Related pubchem assays: 1046 (Thrombin 1536 HTS; hits were confirmed in this assay)]; format: functional
[6] = biological target: Heat shock protein HSP 90-alpha (Homo sapiens, UniProt P07900); format: functional, organism-based
[7] = biological target: Luciferin 4-monooxygenase (Photinus pyralis, UniProt P08659); experiment: firefly luciferase enzyme inhibitors, dose response, biochemical, luminescence (AID 1891)
Sequence of Luciferin 4-monooxygenase (P08659 whole entry): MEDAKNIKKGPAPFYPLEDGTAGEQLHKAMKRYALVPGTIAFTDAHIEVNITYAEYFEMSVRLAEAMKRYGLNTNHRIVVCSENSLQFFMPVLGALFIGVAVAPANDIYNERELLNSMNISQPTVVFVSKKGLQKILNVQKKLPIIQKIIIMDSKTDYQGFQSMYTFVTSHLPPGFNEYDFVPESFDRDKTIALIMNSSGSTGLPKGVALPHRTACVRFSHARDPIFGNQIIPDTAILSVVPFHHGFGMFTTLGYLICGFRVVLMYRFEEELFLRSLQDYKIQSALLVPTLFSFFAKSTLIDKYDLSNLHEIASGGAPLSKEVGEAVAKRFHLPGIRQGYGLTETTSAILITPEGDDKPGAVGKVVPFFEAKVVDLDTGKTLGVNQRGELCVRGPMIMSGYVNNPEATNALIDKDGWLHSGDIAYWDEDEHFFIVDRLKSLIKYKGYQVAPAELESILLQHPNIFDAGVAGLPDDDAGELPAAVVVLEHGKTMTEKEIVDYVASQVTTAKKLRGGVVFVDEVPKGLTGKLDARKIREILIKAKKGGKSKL

[8] = Luminescence Cell-Based Dose Confirmation HTS to Identify Inhibitors of Platelet Dense Granule Release. [Related pubchem assays: 1663 (Primary HTS), 1678 (Summary of Project)]; format: functional
Caspase-3 = biological target: T6, Caspase-3 (Homo sapiens, UniProt P42574); format: functional;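 note: Dose-response selectivity test against caspase-3 for candidate inhibitors of sentrin-specific proteases (SENPs)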
T6 sequence (P42574 whole entry): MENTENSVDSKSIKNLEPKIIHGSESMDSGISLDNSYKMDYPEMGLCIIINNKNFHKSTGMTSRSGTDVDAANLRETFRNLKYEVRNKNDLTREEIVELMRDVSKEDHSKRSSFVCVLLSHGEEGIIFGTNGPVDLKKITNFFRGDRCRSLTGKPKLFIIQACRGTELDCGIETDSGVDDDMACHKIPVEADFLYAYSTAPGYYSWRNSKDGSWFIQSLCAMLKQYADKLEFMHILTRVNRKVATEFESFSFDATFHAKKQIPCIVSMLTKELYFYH

[9] = biological target: T7, Sentrin-specific protease 7 (Homo sapiens, UniProt Q9BQF6); format: functional;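 note: Luminescence-based dose-response confirmation of ultra-high-throughput screening hits, measuring inhibition of SENP7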
T7 sequence (Q9BQF6 whole entry): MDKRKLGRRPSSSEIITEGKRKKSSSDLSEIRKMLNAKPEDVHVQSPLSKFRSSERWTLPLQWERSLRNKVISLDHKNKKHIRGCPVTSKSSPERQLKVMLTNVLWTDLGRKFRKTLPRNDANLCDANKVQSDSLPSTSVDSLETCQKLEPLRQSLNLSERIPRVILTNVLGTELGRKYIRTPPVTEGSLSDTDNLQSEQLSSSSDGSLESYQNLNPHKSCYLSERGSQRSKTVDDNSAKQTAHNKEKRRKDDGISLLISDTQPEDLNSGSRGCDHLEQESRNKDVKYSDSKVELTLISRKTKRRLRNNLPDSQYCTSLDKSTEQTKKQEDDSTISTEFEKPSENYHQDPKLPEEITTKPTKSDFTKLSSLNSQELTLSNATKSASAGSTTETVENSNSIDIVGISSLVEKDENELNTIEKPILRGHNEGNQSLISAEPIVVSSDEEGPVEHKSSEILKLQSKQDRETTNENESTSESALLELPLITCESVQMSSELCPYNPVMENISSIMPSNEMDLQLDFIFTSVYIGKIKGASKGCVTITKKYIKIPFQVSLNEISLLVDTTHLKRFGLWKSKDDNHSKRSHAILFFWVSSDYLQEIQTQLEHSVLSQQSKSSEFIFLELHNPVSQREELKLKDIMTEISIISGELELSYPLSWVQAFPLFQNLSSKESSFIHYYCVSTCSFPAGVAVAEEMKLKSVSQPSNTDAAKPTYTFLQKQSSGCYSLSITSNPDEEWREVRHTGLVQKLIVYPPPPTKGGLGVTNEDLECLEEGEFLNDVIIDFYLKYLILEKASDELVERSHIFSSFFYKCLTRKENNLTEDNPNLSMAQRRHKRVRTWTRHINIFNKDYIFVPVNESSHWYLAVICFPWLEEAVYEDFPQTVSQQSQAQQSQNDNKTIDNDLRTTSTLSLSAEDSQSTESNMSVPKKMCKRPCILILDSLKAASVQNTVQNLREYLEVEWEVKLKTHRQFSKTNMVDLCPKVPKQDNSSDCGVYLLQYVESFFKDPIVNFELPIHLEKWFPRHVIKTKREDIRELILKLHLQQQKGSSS

[10] = biological target: T8, Sentrin-specific protease 6 (Homo sapiens, UniProt Q9GZR1); format: functional;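 note: Luminescence-based dose-response confirmatory assay of SENP6 inhibition, following up an ultra-high-throughput screen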
T8 sequence (Q9GZR1 whole entry): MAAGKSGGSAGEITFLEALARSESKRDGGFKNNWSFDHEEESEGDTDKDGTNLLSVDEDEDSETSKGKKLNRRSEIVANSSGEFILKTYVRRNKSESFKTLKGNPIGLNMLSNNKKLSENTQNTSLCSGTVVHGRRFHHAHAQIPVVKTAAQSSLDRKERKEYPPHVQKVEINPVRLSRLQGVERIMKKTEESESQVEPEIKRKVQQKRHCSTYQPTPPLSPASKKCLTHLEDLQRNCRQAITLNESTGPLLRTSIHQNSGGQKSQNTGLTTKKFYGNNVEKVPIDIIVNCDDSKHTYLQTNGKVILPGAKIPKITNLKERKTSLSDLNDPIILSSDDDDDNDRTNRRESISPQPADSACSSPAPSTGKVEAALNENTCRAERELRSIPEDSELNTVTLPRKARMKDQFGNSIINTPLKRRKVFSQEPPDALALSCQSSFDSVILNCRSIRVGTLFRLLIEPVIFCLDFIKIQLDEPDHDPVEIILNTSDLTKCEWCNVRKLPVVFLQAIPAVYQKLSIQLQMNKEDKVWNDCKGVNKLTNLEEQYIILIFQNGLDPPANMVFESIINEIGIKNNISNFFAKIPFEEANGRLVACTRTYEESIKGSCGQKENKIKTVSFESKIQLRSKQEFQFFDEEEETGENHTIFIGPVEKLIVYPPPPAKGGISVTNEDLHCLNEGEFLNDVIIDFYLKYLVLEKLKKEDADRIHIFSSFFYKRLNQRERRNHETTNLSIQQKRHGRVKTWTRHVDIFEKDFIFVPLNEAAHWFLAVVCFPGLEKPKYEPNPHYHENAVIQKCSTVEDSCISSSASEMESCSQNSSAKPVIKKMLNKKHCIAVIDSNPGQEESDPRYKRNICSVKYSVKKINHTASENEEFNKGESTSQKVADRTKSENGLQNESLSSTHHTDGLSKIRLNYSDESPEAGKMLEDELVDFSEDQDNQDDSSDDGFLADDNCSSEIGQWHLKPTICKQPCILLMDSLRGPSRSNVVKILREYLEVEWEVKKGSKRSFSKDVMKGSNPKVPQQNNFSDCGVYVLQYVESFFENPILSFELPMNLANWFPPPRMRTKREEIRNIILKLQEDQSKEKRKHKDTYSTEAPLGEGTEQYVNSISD

[11] = biological target: T9, Sentrin-specific protease 8 (Homo sapiens, UniProt Q96LD8); format: functional;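 note: luminescence read-out of SENP8 inhibition, dose-response confirmation following an ultra-high-throughput screen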
T9 sequence (Q96LD8 whole entry): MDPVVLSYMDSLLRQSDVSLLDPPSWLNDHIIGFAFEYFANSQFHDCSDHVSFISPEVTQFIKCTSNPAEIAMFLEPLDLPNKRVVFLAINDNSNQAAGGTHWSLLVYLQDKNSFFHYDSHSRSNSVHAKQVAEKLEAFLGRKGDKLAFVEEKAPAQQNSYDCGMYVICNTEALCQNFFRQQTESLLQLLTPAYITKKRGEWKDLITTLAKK

SMILES	AC50 (DNA topoisomerase)	IC50 (Cysteine protease ATG4B)	IC50 (Phospholipase A2)	EC50 [2]	EC50 [3]	other results
COc1cc2c(cc1OC)C1=NC(=O)CN1C(SCc1ccc(C)cc1)=N2	13.8 µM (active)	–	–	–	–	–
O=C(NCc1cccc(C(F)(F)F)c1)c1cc(Cl)cc(Cl)c1	–	41 µM (inactive)	2.38 µM (active)	–	–	AC50 (Cytochrome P450 2C9): inconclusive
CCCCCn1c(SCCC(C)C)nc2c1c(=O)[nH]c(=O)n2C	> 38 µM (inactive)	–	–	–	–	–
C=CCn1c(SCc2cc(C(C)=O)ccc2OCC)nc2ccccc2c1=O	–	5.1 µM (active)	1.3 µM (active)	–	–	–
Cc1ccccc1NCC(=O)c1ccc(Br)cc1	1.96 µM (active)	–	–	–	–	EC50 (Beta-galactosidase): > 40 µM (inactive); IC50 [1]: 8.62 µM (active)
O=C(NCc1cccc(C(F)(F)F)c1)N1CCN(S(=O)(=O)c2ccccc2F)CC1	–	12.5 µM (active)	7.61 µM (active)	–	–	–
CCOC(=O)[C@H]1[C@H]2COc3ccc(Br)cc3[C@H]2N2C(=O)CN(Cc3ccc(C)cc3)C(=O)[C@@]12C	–	–	–	4.72 µM (active)	> 99 µM (inactive)	IC50 [4]: > 66 µM (inactive); IC50 [5]: 49.1 µM (inactive)
Oc1ccc(Cl)cc1/C=C/c1ccc2cccc(O)c2n1	–	–	–	44.8 µM (inactive)	> 99 µM (inactive)	IC50 (Prothrombin): > 50 µM (not active); AC50 [6]: 3.87 µM (active)
COc1ccccc1/N=C/c1c(O)oc2ccccc2c1=O	–	–	–	–	–	EC50 [7]: 1.3 µM (active); EC50 [8]: > 112 µM (not active); IC50 (Caspase-3): > 100 µM (inactive); IC50 [9]: 2.87 µM (active); IC50 [10]: > 100 µM (inactive); IC50 [11]: > 100 µM (inactive)
COc1ccc(C(=O)n2nc(-c3ccco3)nc2SC)cc1OC	–	–	–	> 99 µM (inactive)	45.8 µM (inactive)	IC50 (Prothrombin): 0.204 µM (active)
